Assay results from patent US11479551B2, “MTA-cooperative PRMT5 inhibitors” (Mirati Therapeutics, Inc., priority 2019, dated 2022).

Assays:
[1] = tested on: PRMT5-dependent Symmetric Di-methyl Arginine signal in HCT116 parental cells; assay: SYM11 In-Cell Western, HCT116 parental; format: cell-based; conditions: Homo sapiens, HCT-116, 96 h, 4 days of treatment, SYM11/DRAQ5 ratio
Outline: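 HCT116 parental cells (2,000/well, McCoy's 5A with 10% FBS) dosed with PRMT5 inhibitors for four days at 37° C. Fixed in paraformaldehyde and methanol, then stained with SYM11 antibody and DRAQ5.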

HCT116 parental cells = assay: Proliferation assay (CellTiter-Glo, 10 days of treatment), HCT116 parental; format: cell-based; conditions: Homo sapiens, HCT-116, 240 h
Outline: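 250 cells seeded in McCoy's 5A with 10% FBS, then given a dose response of PRMT5 inhibitor at 37 °C, 5% CO2 for five days. Cells were split 1:10 on Day 6 into fresh medium with the same compound concentration for 5 more days. Viability read on Day 11 by CellTiter-Glo; IC50 after 10 days of treatment.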

[2] = tested on: HCT116 homozygous MTAP knockout cells; assay: Proliferation assay (CellTiter-Glo, 10 days of treatment), HCT116 MTAP knockout; format: cell-based; conditions: Homo sapiens, HCT-116, 240 h, read-out: Proliferation HCT116MTAP_KO IC50
Outline: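 Cells (250/well) seeded in McCoy's 5A with 10% FBS, then treated the next day with a PRMT5 inhibitor dose response at 37 °C, 5% CO2. On day 6 they were split 1:10 into fresh medium with the same compound concentration. CellTiter-Glo viability was read on day 11 and IC50 taken after 10 days of treatment.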

PRMT5/MEP50 complex [3] = molecular target: T1, PRMT5/MEP50 complex (Homo sapiens (Human), UniProt O14744); assay: PRMT5:MEP50 FlashPlate Assay (histone H4 peptide substrate, plus and minus MTA); format: biochemical
T1 sequence (O14744 2-637): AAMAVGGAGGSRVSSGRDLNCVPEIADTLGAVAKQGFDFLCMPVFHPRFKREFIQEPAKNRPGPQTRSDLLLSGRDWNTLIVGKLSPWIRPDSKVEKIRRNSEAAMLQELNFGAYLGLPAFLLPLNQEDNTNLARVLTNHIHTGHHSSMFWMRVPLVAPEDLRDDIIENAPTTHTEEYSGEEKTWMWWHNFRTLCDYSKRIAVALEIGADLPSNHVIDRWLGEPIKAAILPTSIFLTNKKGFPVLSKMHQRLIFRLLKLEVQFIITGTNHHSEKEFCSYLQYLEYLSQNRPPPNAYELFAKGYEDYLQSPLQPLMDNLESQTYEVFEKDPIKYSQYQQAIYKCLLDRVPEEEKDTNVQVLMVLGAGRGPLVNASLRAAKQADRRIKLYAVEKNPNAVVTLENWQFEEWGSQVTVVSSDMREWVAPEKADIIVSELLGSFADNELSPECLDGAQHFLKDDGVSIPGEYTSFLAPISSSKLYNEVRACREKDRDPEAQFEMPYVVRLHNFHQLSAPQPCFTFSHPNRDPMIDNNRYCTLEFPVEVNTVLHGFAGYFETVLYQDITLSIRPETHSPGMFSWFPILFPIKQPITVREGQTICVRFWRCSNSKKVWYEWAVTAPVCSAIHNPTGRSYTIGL
T1 sequence (Q9BQA1 2-342 partner): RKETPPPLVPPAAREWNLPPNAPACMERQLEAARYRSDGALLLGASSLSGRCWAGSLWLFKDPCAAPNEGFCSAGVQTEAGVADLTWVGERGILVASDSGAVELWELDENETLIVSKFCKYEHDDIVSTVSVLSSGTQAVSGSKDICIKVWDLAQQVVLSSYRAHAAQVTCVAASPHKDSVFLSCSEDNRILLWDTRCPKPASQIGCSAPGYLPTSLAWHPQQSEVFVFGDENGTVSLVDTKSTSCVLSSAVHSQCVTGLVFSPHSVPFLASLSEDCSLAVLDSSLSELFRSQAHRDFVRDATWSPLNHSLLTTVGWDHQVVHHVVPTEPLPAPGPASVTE
Procedure: The PRMT5 inhibitory activity of compounds of the present invention was determined using either a PRMT5:MEP50 FlashPlate Assay (Reaction Biology Corporation) or a PRMT5:MEP50 HotSpot Assay (Reaction Biology Corporation).
1. PRMT5:MEP50 FlashPlate Assay

PRMT5/MEP50 complex [4] = molecular target: T1, PRMT5/MEP50 complex; assay: PRMT5:MEP50 HotSpot Assay (full-length histone H2A substrate, plus and minus MTA); format: biochemical; conditions: IC50 + 2 μM MTA, in the presence of 2 μM MTA
Outline: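 Radiometric filter-binding format using recombinant full-length histone H2A as substrate. After the reaction was stopped, mixtures went onto filter paper and tritiated H2A was quantified by scintillation counting.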

[5] = tested on: PRMT5-dependent Symmetric Di-methyl Arginine signal in HCT116 homozygous MTAP knockout cells; assay: SYM11 In-Cell Western, HCT116 MTAP knockout; format: cell-based; conditions: Homo sapiens, HCT-116, 96 h, HCT116 homozygous MTAP knockout cells, 4 days of treatment, SYM11/DRAQ5 ratio; read-out: In-cell-Western (SYM11) HCT116 MTAP_KO IC50
[6] = IC50 + 2 μM MTA (nM), in the presence of 2 μM MTA
[7] = in the absence of MTA, read-out: IC50

Structure (SMILES)	IC50 [1] [nM]	IC50 (HCT116 parental cells) [nM]	IC50 [2] [nM]	IC50 (PRMT5/MEP50 complex [3]; [6]) [nM]	IC50 (PRMT5/MEP50 complex [3]; [7]) [nM]	IC50 (PRMT5/MEP50 complex [4]) [nM]	IC50 [5] [nM]
Cc1cccc(-c2c(-c3ccc4c(=O)[nH]nc(CN)c4c3)cnn2C)c1 [Example 4-94, 4-(aminomethyl)-6-(1-methyl-5-(m-tolyl)-1H-pyrazol-4-yl)phthalazin-1(2H)-one]	10000	4880	1840	2.2	83	737	1180
Cn1ncc(-c2ccc3c(=O)[nH]nc(CN)c3c2)c1-c1ccccc1C#N [Example 4-100, 2-(4-(4-(aminomethyl)-1-oxo-1,2-dihydrophthalazin-6-yl)-1-methyl-1H-pyrazol-5-yl)benzonitrile]	10000	10000	5230	0.5	80	1510	505
CCOc1ccn2ncc(-c3ccc4c(=O)[nH]nc(CN)c4c3)c2c1 [Example 4-158, 4-(aminomethyl)-6-(5-ethoxypyrazolo[1,5-a]pyridin-3-yl)phthalazin-1(2H)-one]	> 10000	1740	2200	2.8	113	1460	> 10000
CN(c1ccccc1)c1cncc(-c2ccc3c(=O)[nH]nc(CN)c3c2)c1 [Example 4-159, 4-(aminomethyl)-6-(5-(methyl(phenyl)amino)pyridin-3-yl)phthalazin-1(2H)-one]	> 10000	> 10000	8250	4	68.4	393	> 10000
CCc1cccc(-c2c(-c3cc(C)c4c(=O)[nH]nc(CN)c4c3)cnn2C)c1C#N [Example 10-7, 2-(4-(4-(aminomethyl)-8-methyl-1-oxo-1,2-dihydrophthalazin-6-yl)-1-methyl-1H-pyrazol-5-yl)-6-ethylbenzonitrile]	> 1000	8390	103			107	31
CCc1cccc(-c2c(-c3cc(F)c4c(=O)[nH]nc(CN)c4c3)cnn2C)c1C#N [Example 10-8, 2-(4-(4-(aminomethyl)-8-fluoro-1-oxo-1,2-dihydrophthalazin-6-yl)-1-methyl-1H-pyrazol-5-yl)-6-ethylbenzonitrile]	4720	> 10000	276			660	27
CCOc1cccc(-c2c(-c3cc(F)c4c(=O)[nH]nc(CN)c4c3)cnn2C)c1C#N [Example 10-10, 2-(4-(4-(aminomethyl)-8-fluoro-1-oxo-1,2-dihydrophthalazin-6-yl)-1-methyl-1H-pyrazol-5-yl)-6-ethoxybenzonitrile]	> 10000	> 10000	1250			2730	89
Cc1cc(-c2cnn(C)c2-c2ccc3ccccc3c2C#N)cc2c(CN)n[nH]c(=O)c12 [Example 10-11, 2-(4-(4-(aminomethyl)-8-methyl-1-oxo-1,2-dihydrophthalazin-6-yl)-1-methyl-1H-pyrazol-5-yl)-1-naphthonitrile]	4260	763	29			34	5
Cc1cc(-c2cnn(C)c2-c2cccc(OC3CC3)c2C#N)cc2c(CN)n[nH]c(=O)c12 [Example 10-12, 2-(4-(4-(aminomethyl)-8-methyl-1-oxo-1,2-dihydrophthalazin-6-yl)-1-methyl-1H-pyrazol-5-yl)-6-cyclopropoxybenzonitrile]	> 1000	6200	91			155	6
[2H]C([2H])(N)c1n[nH]c(=O)c2ccc(-c3cnn(C)c3-c3cccc(Cl)c3C#N)cc12 [Example 11-1, 2-(4-(4-(aminomethyl-d2)-1-oxo-1,2-dihydrophthalazin-6-yl)-1-methyl-1H-pyrazol-5-yl)-6-chlorobenzonitrile]	> 1000	> 10000	807			1970	57
[2H]C([2H])(N)c1n[nH]c(=O)c2ccc(-c3cnn(C)c3-c3ccc4ccccc4c3C#N)cc12 [Example 11-2, 2-(4-(4-(aminomethyl-d2)-1-oxo-1,2-dihydrophthalazin-6-yl)-1-methyl-1H-pyrazol-5-yl)-1-naphthonitrile]	> 10000	1950	94			138	1
Cc1c(Cl)ccc(-c2c(-c3ccc4c(=O)[nH]nc(CN)c4c3)cnn2C)c1C#N [Example 12-1, 6-(4-(4-(aminomethyl)-1-oxo-1,2-dihydrophthalazin-6-yl)-1-methyl-1H-pyrazol-5-yl)-3-chloro-2-methylbenzonitrile]	> 1000	> 10000	158			316	28
Cc1ccc(-c2c(-c3ccc4c(=O)[nH]nc(CN)c4c3)cnn2C)c(C#N)c1C [Example 12-2, 6-(4-(4-(aminomethyl)-1-oxo-1,2-dihydrophthalazin-6-yl)-1-methyl-1H-pyrazol-5-yl)-2,3-dimethylbenzonitrile]	2200	208	> 10000			315	16
CCc1cc(CC)c(C#N)c(-c2c(-c3ccc4c(=O)[nH]nc(CN)c4c3)cnn2C)c1 [Example 12-3, 2-[4-[4-(aminomethyl)-1-oxo-2H-phthalazin-6-yl]-2-methyl-pyrazol-3-yl]-4,6-diethyl-benzonitrile]	> 1000	1690	137			212	8
Cc1cccc2c(C#N)c(-c3c(-c4ccc5c(=O)[nH]nc(CN)c5c4)cnn3C)ccc12 [Example 12-9, 2-(4-(4-(aminomethyl)-1-oxo-1,2-dihydrophthalazin-6-yl)-1-methyl-1H-pyrazol-5-yl)-5-methyl-1-naphthonitrile]	> 10000	3350	148			178	9
Cc1cc(C)c(C#N)c(-c2c(-c3ccc4c(=O)[nH]nc(CN)c4c3)cnn2C)c1 [Example 12-11, 2-(4-(4-(aminomethyl)-1-oxo-1,2-dihydrophthalazin-6-yl)-1-methyl-1H-pyrazol-5-yl)-4,6-dimethylbenzonitrile]	1230	8700	125			234	18
Cc1c(-c2cnn(C)c2)ccc(-c2c(-c3ccc4c(=O)[nH]nc(CN)c4c3)cnn2C)c1C#N [Example 12-13, 6-(4-(4-(aminomethyl)-1-oxo-1,2-dihydrophthalazin-6-yl)-1-methyl-1H-pyrazol-5-yl)-2-methyl-3-(1-methyl-1H-pyrazol-4-yl)benzonitrile]	> 1000	2000	1410			218	95
Cc1cc(C2CC2)cc(-c2c(-c3ccc4c(=O)[nH]nc(CN)c4c3)cnn2C)c1C#N [Example 12-14, 2-[4-[4-(aminomethyl)-1-oxo-2H-phthalazin-6-yl]-2-methyl-pyrazol-3-yl]-4-cyclopropyl-6-methyl-benzonitrile]	1810	> 10000	226			182	15
